Blank lines part the entries; values can stand above or below the molecule they belong to.
Experiments:
[1] = Pharmacokinetic study in ICR mice; assay type: in vivo; details: male, mouse, po, 10 mg·kg^-1 by gavage, plasma
Procedure: Each compound was prepared into a 10 mg/mL stock solution with DMSO.
Mixed solvent preparation: Tween 80:PEG 400:Water=1:9:90 (v/v/v).
Accurately aspirated 450 μL of DMSO stock solution of the compounds at a concentration of 10 mg/mL to a glass vial, respectively, added an appropriate volume of DMSO and mixed solvent, the ratio of solvent in the final preparation is DMSO:mixed solvent (v/v)=10:90, vortexed (or sonicated), dispersed homogeneously, to obtain the concentration of 1 mg/mL of 4.5 mL of the administered test solution respectively.
Male 6-10 weeks old ICR mice (mouse source: Viton Lever Laboratory Animal Technology Co., Ltd.) were taken, 6 mice in each group, and the mice were fasted overnight and fed 4 hours after drug administration. On the day of the experiment, mice were given 10 mg·kg^−1 of compound test solution by gavage respectively. After the administration of the drug, mice were blood sampled at 0, 5 min, 15 min, 30 min, 1 h, 2 h, 4 h, 8 h, and 24 h from the orbital region of about […], which was placed in EDTA-K2 anticoagulant tubes. […] Plasma concentration was determined by LC-MS/MS method.
Pharmacokinetic parameters were calculated using the non-compartment model in Pharsight Phoenix 7.0, and the results are detailed in the following table.

[2] = Solubility in water and various pH media; assay type: physicochemical; details: thermodynamic from solid
[3] = Physicochemical stability study of crystal forms (XRPD and HPLC)
Excerpt: Use XRPD and HPLC to detect the physical and chemical stability of the samples.

[4] = After placement, 40° C./75% RH, 5 days
[5] = After placement, 40° C./75% RH, 10 days
[6] = After placement, 40° C./75% RH, 30 days
[7] = After placement, 60° C., 5 days
[8] = After placement, 60° C., 10 days
[9] = After placement, 60° C., 30 days
[10] = After placement, 75% RH, 5 days
[11] = After placement, 75% RH, 10 days
[12] = After placement, 75% RH, 30 days
[13] = After placement, 92.5% RH, 5 days
[14] = After placement, 92.5% RH, 10 days
[15] = After placement, Light, 10 days

half-life [1]: 1.35 h
SMILES: COCc1ccc(Nc2nc(Nc3ccc4c(c3)CC[C@@H](N3CCCC3)CC4)ncc2Cl)c(P(C)(C)=O)c1 [Example 1, (S)-(2-((5-chloro-2-((7-(pyrrolidin-1-yl)-6,7,8,9-tetrahydro-5H-benzo[7]annulen-2-yl)amino)pyrimidin-4-yl)amino)-5-(methoxymethyl)phenyl)dimethylphosphine oxide]

solubility ([2]; potassium dihydrogen phosphate/sodium hydroxide buffer, aqueous buffer, pH 6.0, potassium dihydrogen phosphate/sodium hydroxide): 1900 µg/mL | solubility ([2]; potassium dihydrogen phosphate/sodium hydroxide buffer, aqueous buffer, pH 6.8, potassium dihydrogen phosphate/sodium hydroxide): 2100 µg/mL | solubility ([2]; potassium dihydrogen phosphate/sodium hydroxide buffer, aqueous buffer, pH 7.4, potassium dihydrogen phosphate/sodium hydroxide): 2100 µg/mL | solubility ([2]; simulated gastric fluid, pH 1.0, dilute hydrochloric acid with water): 87200 µg/mL | solubility ([2]; simulated gastric fluid, pH 2.0, dilute hydrochloric acid with water): 4700 µg/mL | solubility ([2]; sodium acetate trihydrate/glacial acetic acid buffer, aqueous buffer, pH 4.5, sodium acetate trihydrate/glacial acetic acid): 2000 µg/mL | solubility ([2]; water): 1400 µg/mL | Crystal form [3, 4]: Crystal form B | Maximum single impurity [3, 4]: Maximum single impurity: 0.04 A % | Purity [3, 4]: Purity: 99.81 A % | Crystal form [3, 5]: Crystal form B | Maximum single impurity [3, 5]: Maximum single impurity: 0.04 A % | Purity [3, 5]: Purity: 99.82 A % | Crystal form [3, 6]: Crystal form B | Maximum single impurity [3, 6]: Maximum single impurity: 0.04 A % | Purity [3, 6]: Purity: 99.81 A % | Crystal form [3, 7]: Crystal form B | Maximum single impurity [3, 7]: Maximum single impurity: 0.04 A % | Purity [3, 7]: Purity: 99.81 A % | Crystal form [3, 8]: Crystal form B | Maximum single impurity [3, 8]: Maximum single impurity: 0.04 A % | Purity [3, 8]: Purity: 99.82 A % | Crystal form [3, 9]: Crystal form B | Maximum single impurity [3, 9]: Maximum single impurity: 0.04 A % | Purity [3, 9]: Purity: 99.80 A % | Crystal form [3, 10]: Crystal form B | Maximum single impurity [3, 10]: Maximum single impurity: 0.04 A % | Purity [3, 10]: Purity: 99.81 A % | Crystal form [3, 11]: Crystal form B | Maximum single impurity [3, 11]: Maximum single impurity: 0.04 A % | Purity [3, 11]: Purity: 99.82 A % | Crystal form [3, 12]: Crystal form B | Maximum single impurity [3, 12]: Maximum single impurity: 0.04 A % | Purity [3, 12]: Purity: 99.80 A % | Crystal form [3, 13]: Crystal form B | Maximum single impurity [3, 13]: Maximum single impurity: 0.04 A % | Purity [3, 13]: Purity: 99.81 A % | Crystal form [3, 14]: Crystal form B | Maximum single impurity [3, 14]: Maximum single impurity: 0.04 A % | Purity [3, 14]: Purity: 99.82 A % | Crystal form ([3]; After placement, Light, 5 days): Crystal form B | Maximum single impurity ([3]; After placement, Light, 5 days): Maximum single impurity: 0.05 A % | Purity ([3]; After placement, Light, 5 days): Purity: 99.67 A % | Crystal form [3, 15]: Crystal form B | Maximum single impurity [3, 15]: Maximum single impurity: 0.10 A % | Purity [3, 15]: Purity: 99.60 A % | Crystal form ([3]; Before placement): Crystal form B | Maximum single impurity ([3]; Before placement): impurity: 0.04 A % | Purity ([3]; Before placement): Purity: 99.81 A %
SMILES: COCc1ccc(Nc2nc(Nc3ccc4c(c3)CC[C@@H](N3CCCC3)CC4)ncc2Cl)c(P(C)(C)=O)c1.Cc1ccc(S(=O)(=O)O)cc1 [crystal form B, mono-p-toluenesulfonate monohydrate of (S)-(2-((5-chloro-2-((7-(pyrrolidin-1-yl)-6,7,8,9-tetrahydro-5H-benzo[7]annulen-2-yl)amino)pyrimidin-4-yl)amino)-5-(methoxymethyl)phenyl)dimethylphosphine oxide]

half-life [1]: 1.2 h
SMILES: CN1CCN(Cc2ccc(Nc3ncc(Cl)c(Nc4ccccc4S(=O)(=O)N(C)C)n3)cc2)CC1 [Positive drug 2 (TP0903), reference compound]

Crystal form [3, 7]: Crystal form A | Maximum single impurity [3, 7]: impurity: 0.75 A % | Purity [3, 7]: Purity: 96.39 A % | Crystal form [3, 8]: Crystal form A | Maximum single impurity [3, 8]: impurity: 1.21 A % | Purity [3, 8]: Purity: 94.49 A % | Maximum single impurity [3, 9]: impurity: 2.02 A % | Purity [3, 9]: Purity: 89.65 A % | Crystal form ([3]; Before placement): Crystal form A | Maximum single impurity ([3]; Before placement): impurity: 0.05 A % | Purity ([3]; Before placement): Purity: 99.33 A %
SMILES: COCc1ccc(Nc2nc(Nc3ccc4c(c3)CC[C@@H](N3CCCC3)CC4)ncc2Cl)c(P(C)(C)=O)c1 [free base crystal form A, (S)-(2-((5-chloro-2-((7-(pyrrolidin-1-yl)-6,7,8,9-tetrahydro-5H-benzo[7]annulen-2-yl)amino)pyrimidin-4-yl)amino)-5-(methoxymethyl)phenyl)dimethylphosphine oxide]

From patent US20250026773A1, “MONO-P-TOLUENESULFONATE OF AXL KINASE INHIBITOR AND CRYSTAL FORM THEREOF” (NANJING CHIA TAI TIANQING PHARMACEUTICAL CO., LTD., priority 2021, published 2025)
